Target: IRAK4 kinase (Homo sapiens (Human), UniProt Q9NWZ3)
Experiment: IRAK4 kinase activity inhibition assay (ADP-Glo)
Format: biochemical
Conditions: 10 μM ATP, MBP substrate, 60 min at 25° C.
Method: IRAK4 kinase (purchased from Life Technologies, Cat. No.: PR5612U) was diluted to 2 folds of the final concentration (the final concentration is 0.76 ng/μL) with reaction buffer (40 mM Tris-HCl, pH 7.5; 20 mM MgCl2; 0.1 mg/mL BSA; 1 mM DTT), and added to a 384-well plate at 5 μL/well. The test drugs were 10-fold serial diluted from 10 μM to set six concentration points and added to the test wells of the 384-well plate at 2.5 μL/well. After incubation for 10 min at 25° C., 10 μM of ATP and […] of an enzyme reaction substrate, myelin basic protein MBP (purchased from SignalChem, Cat. No.: M42-51N) were added at 2.5 µL/well, and reacted at 25° C. for 60 minutes. After the reaction was completed, the kinase activity assay was performed using the ADP-Glo™ kinase assay kit (purchased from Promega, Cat. No.: V9102) according to the manufacture's instruction, i.e., 10 μL of ADP-Glo reaction reagent was first added and reacted at 25° C. for 40 minutes, 10 μL of the solution to be tested was taken and mixed with 10 μL of ADP-Glo detection reagent, and reacted at 25° C. for 30 minutes. The kinase activity was then detected, and the IC50 values of the test drugs were calculated.

IRAK4 kinase, sequence (Q9NWZ3 whole entry): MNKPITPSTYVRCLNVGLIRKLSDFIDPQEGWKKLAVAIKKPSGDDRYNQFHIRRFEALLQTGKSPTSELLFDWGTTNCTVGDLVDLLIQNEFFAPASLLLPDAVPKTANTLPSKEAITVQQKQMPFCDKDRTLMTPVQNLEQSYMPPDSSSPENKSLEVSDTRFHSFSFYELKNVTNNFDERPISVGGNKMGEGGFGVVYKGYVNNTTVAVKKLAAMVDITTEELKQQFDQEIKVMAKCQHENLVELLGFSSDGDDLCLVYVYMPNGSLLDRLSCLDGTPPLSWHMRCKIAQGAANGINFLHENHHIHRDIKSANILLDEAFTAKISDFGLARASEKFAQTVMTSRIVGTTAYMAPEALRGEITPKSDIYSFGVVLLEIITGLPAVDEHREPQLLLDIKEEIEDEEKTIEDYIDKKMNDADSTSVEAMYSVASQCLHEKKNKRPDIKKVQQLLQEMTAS

IC50	SMILES
≤ 100 nM	Cc1cc(Nc2nc(N[C@H]3CC[C@H](O)CC3)c3sccc3n2)sn1 [Compound 1, trans-4-((2-((3-methylisothiazol-5-yl)amino)thieno[3,2-d]pyrimidin-4-yl)amino)cyclohexanol]
≤ 100 nM	Cc1cc(Nc2nc(NC3CC(O)C3)c3sccc3n2)sn1 (stereo not drawn) [Compound 2]
≤ 100 nM	Cc1cc(Nc2nc(N[C@H]3C[C@@](C)(O)C3)c3sccc3n2)sn1 [Compound 3]
≤ 100 nM	Cc1cc(Nc2nc(N[C@H]3CC[C@@H](O)C3)c3sccc3n2)sn1 [Compound 4]
100 to 1000 nM	Cc1cc(Nc2nc(N[C@H]3CC[C@H](O)C3)c3sccc3n2)sn1 [Compound 5]
100 to 1000 nM	Cc1cc(Nc2nc(NC3CCC(C)(O)C3)c3sccc3n2)sn1 (stereo not drawn) [Compound 6]
≤ 100 nM	Cc1cc(Nc2nc(N[C@@H]3C[C@H](CO)[C@@H](O)[C@H]3O)c3sccc3n2)sn1 [Compound 7]
≤ 100 nM	Cc1cc(Nc2nc(N[C@H]3CC[C@@H](O)CC3)c3sccc3n2)sn1 [Compound 8]
≤ 100 nM	Cc1cc(Nc2nc(NC3CCC(CO)CC3)c3sccc3n2)sn1 (stereo not drawn) [Compound 10]
100 to 1000 nM	Cc1cc(Nc2nc(NC3CCC(O)C(C)C3)c3sccc3n2)sn1 (stereo not drawn) [Compound 11]
100 to 1000 nM	CCC1(O)CCC(Nc2nc(Nc3cc(C)ns3)nc3ccsc23)CC1 (stereo not drawn) [Compound 12]
100 to 1000 nM	Cc1cc(Nc2nc(NC3CCC(C(N)=O)CC3)c3sccc3n2)sn1 (stereo not drawn) [Compound 13]
≤ 100 nM	Cc1cc(Nc2nc(N[C@@H]3CC[C@H](O)[C@@H](O)C3)c3sccc3n2)sn1 [Compound 14]
100 to 1000 nM	Cc1cc(Nc2nc(O[C@H]3CC[C@H](O)CC3)c3sccc3n2)sn1 [Compound 15]
100 to 1000 nM	CO[C@H]1CC[C@H](Nc2nc(Nc3cc(C)ns3)nc3ccsc23)CC1 [Compound 16]
100 to 1000 nM	Cc1cc(Nc2nc(N[C@H]3CC[C@H](O)CC3)c3sccc3n2)on1 [Compound 17]
≤ 100 nM	Cn1cc(Nc2nc(N[C@H]3CC[C@H](O)CC3)c3sccc3n2)cn1 [Compound 18]
100 to 1000 nM	O[C@H]1CC[C@H](Nc2nc(Nc3cnoc3)nc3ccsc23)CC1 [Compound 19]
≤ 100 nM	COc1cc(Nc2nc(N[C@@H]3C[C@H](CO)[C@@H](O)[C@H]3O)c3sccc3n2)ccn1 [Compound 20]
1000 to 10000 nM	O[C@H]1CC[C@H](Nc2nc(Nc3ccncc3)nc3ccsc23)CC1 [Compound 21]
100 to 1000 nM	Cc1cc(Nc2nc(N[C@H]3CC[C@](C)(O)CC3)c3sccc3n2)cc(C)n1 [Compound 22]
100 to 1000 nM	COc1cc(Nc2nc(N[C@H]3CC[C@](C)(O)CC3)c3sccc3n2)ccn1 [Compound 23]

IC50	SMILES
1000 to 10000 nM	Cc1cc(Nc2nc(N(C)C3CCC(C)(O)CC3)c3sccc3n2)sn1 (stereo not drawn) [Compound 24, 1-methyl-4-(methyl(2-((3-methylisothiazol-5-yl)amino)thieno[3,2-d]pyrimidin-4-yl)amino)cyclohexanol]
≤ 100 nM	O[C@H]1CC[C@H](Nc2nc(Nc3cnn(-c4ccccc4)c3)nc3ccsc23)CC1 [Compound 25, trans-4-((2-((1-phenyl-1H-pyrazol-4-yl)amino)thieno[3,2-d]pyrimidin-4-yl)amino)cyclohexanol]
≤ 100 nM	OCCn1cc(Nc2nc(N[C@H]3CC[C@H](O)CC3)c3sccc3n2)cn1 [Compound 26]
100 to 1000 nM	O[C@H]1CC[C@H](Nc2nc(Nc3cnn(C4CCCC4)c3)nc3ccsc23)CC1 [Compound 27]
≤ 100 nM	O[C@H]1CC[C@H](Nc2nc(Nc3cnn(C4CCCNC4)c3)nc3ccsc23)CC1 (stereo partly drawn) [Compound 28]
100 to 1000 nM	Oc1ccccc1-n1cc(Nc2nc(N[C@H]3CC[C@H](O)CC3)c3sccc3n2)cn1 [Compound 29]
100 to 1000 nM	Oc1cccc(-n2cc(Nc3nc(N[C@H]4CC[C@H](O)CC4)c4sccc4n3)cn2)c1 [Compound 30]
100 to 1000 nM	Oc1ccc(-n2cc(Nc3nc(N[C@H]4CC[C@H](O)CC4)c4sccc4n3)cn2)cc1 [Compound 31]
100 to 1000 nM	O[C@H]1CC[C@H](Nc2nc(Nc3cnn(-c4cccc(N5CCOCC5)c4)c3)nc3ccsc23)CC1 [Compound 34]
100 to 1000 nM	O[C@H]1CC[C@H](Nc2nc(Nc3cnn(-c4ccc(N5CCOCC5)cc4)c3)nc3ccsc23)CC1 [Compound 35]
100 to 1000 nM	O[C@H]1CC[C@H](Nc2nc(Nc3cnn(-c4ccccn4)c3)nc3ccsc23)CC1 [Compound 36]
≤ 100 nM	O[C@H]1CC[C@H](Nc2nc(Nc3cnn(-c4cccnc4)c3)nc3ccsc23)CC1 [Compound 37]
≤ 100 nM	O[C@H]1CC[C@H](Nc2nc(Nc3cnn(-c4ccncc4)c3)nc3ccsc23)CC1 [Compound 38]
100 to 1000 nM	O[C@H]1CC[C@H](Nc2nc(Nc3cnn(-c4ccncn4)c3)nc3ccsc23)CC1 [Compound 39]
100 to 1000 nM	O[C@H]1CC[C@H](Nc2nc(Nc3cnn(-c4cncnc4)c3)nc3ccsc23)CC1 [Compound 40]
1000 to 10000 nM	Cc1ncccc1-n1cc(Nc2nc(N[C@H]3CC[C@H](O)CC3)c3sccc3n2)cn1 [Compound 41]
100 to 1000 nM	Cc1cncc(-n2cc(Nc3nc(N[C@H]4CC[C@H](O)CC4)c4sccc4n3)cn2)c1 [Compound 42]
100 to 1000 nM	Cc1cc(-n2cc(Nc3nc(N[C@H]4CC[C@H](O)CC4)c4sccc4n3)cn2)ccn1 [Compound 43]
100 to 1000 nM	C[C@]1(O)CC[C@H](Nc2nc(Nc3cnn(C(=O)CC4CCNCC4)c3)nc3ccsc23)CC1 [Compound 44]
100 to 1000 nM	CN1CCN(C(=O)c2cc(Nc3nc(N[C@H]4CC[C@H](O)CC4)c4sccc4n3)sn2)CC1 [Compound 45, (5-((4-((trans-4-hydroxycyclohexyl)amino)thieno[3,2-d]pyrimidin-2-yl)amino)isothiazol-3-yl)(4-methylpiperazin-1-yl)methanone]
100 to 1000 nM	COCCNC(=O)c1csc(Nc2nc(N[C@H]3CC[C@](C)(O)CC3)c3sccc3n2)c1 [Compound 46]
≤ 100 nM	C[C@]1(O)CC[C@H](Nc2nc(Nc3cc(C(=O)N[C@H]4CCNC4)cs3)nc3ccsc23)CC1 [Compound 47]

IC50	SMILES
≤ 100 nM	C[C@]1(O)CC[C@H](Nc2nc(Nc3cc(C(=O)N[C@@H]4CCNC4)cs3)nc3ccsc23)CC1 [Compound 48]
100 to 1000 nM	C[C@]1(O)CC[C@H](Nc2nc(Nc3cc(C(=O)NC4CCNCC4)cs3)nc3ccsc23)CC1 [Compound 49]
100 to 1000 nM	CN1CCN(C(=O)c2csc(Nc3nc(N[C@H]4CC[C@](C)(O)CC4)c4sccc4n3)c2)CC1 [Compound 50]
1000 to 10000 nM	C[C@]1(O)CC[C@H](Nc2nc(Nc3cc(C(=O)NC4CCNCC4)n[nH]3)nc3ccsc23)CC1 [Compound 51]
≤ 100 nM	C[C@]1(O)CC[C@H](Nc2nc(Nc3cc(C(=O)NCCCO)ns3)nc3ccsc23)CC1 [Compound 52]
100 to 1000 nM	COCCNC(=O)c1cc(Nc2nc(N[C@H]3CC[C@](C)(O)CC3)c3sccc3n2)sn1 [Compound 53]
≤ 100 nM	C[C@]1(O)CC[C@H](Nc2nc(Nc3cc(C(=O)NCC4CCNCC4)ns3)nc3ccsc23)CC1 [Compound 54]
≤ 100 nM	C[C@]1(O)CC[C@H](Nc2nc(Nc3cc(C(=O)N[C@@H]4CCNC4)ns3)nc3ccsc23)CC1 [Compound 55]
≤ 100 nM	C[C@]1(O)CC[C@H](Nc2nc(Nc3cc(C(=O)N[C@@H]4CCCNC4)ns3)nc3ccsc23)CC1 [Compound 56]
≤ 100 nM	C[C@]1(O)CC[C@H](Nc2nc(Nc3cc(C(=O)NC4CCOCC4)ns3)nc3ccsc23)CC1 [Compound 57]
≤ 100 nM	C[C@]1(O)CC[C@H](Nc2nc(Nc3cc(C(=O)NC4CCNCC4)ns3)nc3ccsc23)CC1 [Compound 58]
≤ 100 nM	CN1CCC(NC(=O)c2cc(Nc3nc(N[C@H]4CC[C@](C)(O)CC4)c4sccc4n3)sn2)CC1 [Compound 59]
100 to 1000 nM	CC(=O)N1CCC(NC(=O)c2cc(Nc3nc(N[C@H]4CC[C@](C)(O)CC4)c4sccc4n3)sn2)CC1 [Compound 60]
1000 to 10000 nM	C[C@]1(O)CC[C@H](Nc2nc(Nc3cc(C(=O)Nc4ccccc4)ns3)nc3ccsc23)CC1 [Compound 61]
100 to 1000 nM	C[C@]1(O)CC[C@H](Nc2nc(Nc3cc(C(=O)Nc4cccnc4)ns3)nc3ccsc23)CC1 [Compound 62]
100 to 1000 nM	C[C@]1(O)CC[C@H](Nc2nc(Nc3cc(C(=O)Nc4ccncc4)ns3)nc3ccsc23)CC1 [Compound 63]
100 to 1000 nM	C[C@]1(O)CC[C@H](Nc2nc(Nc3ccc(C(=O)N[C@@H]4CCNC4)cc3)nc3ccsc23)CC1 [Compound 64]
100 to 1000 nM	C[C@]1(O)CC[C@H](Nc2nc(Nc3cccc(C(=O)NC4CCNCC4)c3)nc3ccsc23)CC1 [Compound 65]
100 to 1000 nM	C[C@]1(O)CC[C@H](Nc2nc(Nc3ccc(C(=O)NC4CCNCC4)cc3)nc3ccsc23)CC1 [Compound 66]
100 to 1000 nM	CNC1CCN(C(=O)c2ccc(Nc3nc(N[C@H]4CC[C@H](O)CC4)c4sccc4n3)cc2)CC1 [Compound 67]
100 to 1000 nM	CN(C)C1CCN(C(=O)c2ccc(Nc3nc(N[C@H]4CC[C@H](O)CC4)c4sccc4n3)cc2)CC1 [Compound 68]
100 to 1000 nM	O[C@H]1CC[C@H](Nc2nc(Nc3ccc(OC4CCOC4)cc3)nc3ccsc23)CC1 (stereo partly drawn) [Compound 69, trans-4-((2-((4-((tetrahydrofuran-3-yl)oxy)phenyl)amino)thieno[3,2-d]pyrimidin-4-yl)amino)cyclohexanol]

— patent publication US10988482B2, “IRAK4 inhibitor and use thereof” (BEIJING HANMI PHARMACEUTICAL CO., LTD., priority 2015, dated 2021)
